Measured values taken from patent US20160144055A1, “GENE THERAPY VECTOR FOR TREATMENT OF STEROID GLAUCOMA” (priority 2009, published 2016).
Several values for one entry are separate records, joined by “and”; a condition that tells them apart may be missing. Equal values may be shown once. Read-outs that look alike come from different tables or passages of the source.

What was measured:
[1] = tested on: MMP1 expression in primary HTM cells; experiment: Endogenous MMP1 expression in glucocorticoid-treated primary HTM cells (real-time TaqMan PCR); format: cell-based, human
Method: To generate primary HTM cells, the trabecular meshwork tissue was dissected from residual cornea rims after surgical corneal transplantation at the University of North Carolina Eye Clinic, Chapel Hill, N.C., United States of America. Trabecular meshworks were isolated from surrounding tissue, cut into small pieces and treated with 1 mg/ml collagenase type IV (Worthington, Lakewood, N.J., United States of America), as previously described (Vittitow et al., Mol Via 2002; 8:32-44). Cells were maintained at 37° C., 7% CO2 in MEM Richter's modification medium (HyClone, Thermo Fisher Scientific, Waltham, Mass., United States of America) supplemented with 20% FBS and 50 ug/ml gentamicin (Gibco Invitrogen, Carlsbad, Calif., United States of America). At confluency, cells were passed and maintained in the same medium but with 10% FBS (complete medium). All cells were used at passages 4 to 6. These outflow pathway cultures include cells from the three distinct regions of the trabecular meshwork plus cells lining the Schlemm's canal (SC). Because most of the cells in these cultures come from the trabecular meshwork they are commonly referred to as trabecular meshwork cells. The cells used in this study were from a person (HTM-109), a person (HTM-95), a person (HTM-106) and a person (HTM-140).
Drug treatments on the HTM cells were conducted in complete media. HTM cells were grown to pre-confluency and exposed to drugs as follows. Treatment with dexamethasone (DEX; Sigma, St. Louis, Mo., United States of America) was conducted at a final concentration of 0.1 uM. DEX was reconstituted in absolute ethanol at 0.1 mM and diluted 1,000-fold into complete media every 48 to 72 hours for the duration of the experiment. Treatment with triamcinolone acetonide (Kenacort-A; Bristol-Myers Squibb, New York, N.Y., United States of America) was performed at a final concentration of 0.1 mg/ml. Kenacort-A 40 mg/ml suspension was well mixed and diluted into complete medium 400-fold at the time of use. The concentration of 0.1 mg/ml triamcinolone acetonide was chosen because intravitreal injections of 1 mg/ml are widely used in the clinical setting, which would result in a lower concentration of the steroid in the aqueous humor. In addition, the concentration of 0.1 mg/ml has been successfully studied in trabecular meshwork cells (Fan B J et al., Invest Ophthalmol Vis Sci. 2008; 49:1886-1897). Treatment with prednisolone was conducted at a final concentration of 200 uM (80 μg/ml). Prednisolone 21-acetate (Sigma) was reconstituted in ethanol at 200 mM (80 mg/ml) as a suspension and mixed well prior dilution of 1,000-fold into the culture medium. The drugs were exposed to the cells for the period of time described in results. Untreated control dishes received the same volume of absolute ethanol (drug vehicle) under identical conditions.
HTM cells were scraped from tissue culture dishes with guanidine thiocyanate buffer (RLT, Qiagen, Valencia, Calif., United States of America). Total RNA was extracted by loading the solution onto a QIA Shredder™ column (Qiagen) and continued by the use of the RNeasy Mini kit with on-column RNase-free DNAse digestion according to manufacturer's recommendations (Qiagen). Purified RNA was eluted in 30 ul RNase-free water and concentration measured with a NanoDrop ND-100 spectrophotometer (Thermo Fisher Scientific). For the tissue, human trabecular meshworks were excised from one week RNAlater (Ambion Applied Biosystems, Austin, Tex., United States of America) immersed anterior segments. One half of the isolated trabecular meshwork tissue was homogenized on 350 μl of RLT and RNA extraction continued as described for the cells. Recoveries were between 1.4 to 2 ug of RNA per human trabecular meshwork. […]

[2] = tested on: sheep eyes; conditions: cited from earlier work
[3] = tested on: sheep eyes with triamcinolone-induced ocular hypertension; conditions: for IOP on Day 4 after bilateral sub-Tenon injection: n=4, before virus
Method: All animal experiments were performed in accordance with the Association for Research in Vision and Ophthalmology (ARVO) guidelines. A total of 18 healthy (female) sheep (Corriedale breed) between 12 and 24 months of age, and weighing 35 to 40 kg, were selected from a local ranch in Corrientes, Argentina for this study. The eyes and general health of the animals were considered normal by an ophthalmologist and a veterinarian, respectively. Sheep were tagged for individual identification on their ear lobes and herded from pasture whenever it was necessary to 1) topically instill prednisolone, 2) inject a sub-Tenon depot of triamcinolone acetonide, 3) inject adenoviral vectors carrying the MMP1 transgene intracamerally via the cornea, or 4) measure IOP by applanation tonometry. To apply prednisolone, the sheep were guided into a funnel corral ending in a loose-fitting yoke. This arrangement allowed movement and holding of the head by one person while another instilled the drops. To measure IOP with a Perkins tonometer, the sheep were also guided into the funnel corral and then into the neck yoke. For the sub-Tenon injection of triamcinolone, and the trans-corneal injections of adenoviral vectors, sheep were anesthetized topically. Between all procedures, the sheep were free to pasture.
In those sheep in which triamcinolone was used to induce ocular hypertension, the following general protocol was applied. Two drops of proparacaine (0.5%) were topically instilled to the ocular surface. Then, a single 1-ml injection of sterile triamcinolone acetonide (40 mg/ml, or 4%; Bristol-Myers Squibb Co., Princeton, N.J., United States of America) was administered via sub-Tenon injection using a 30G needle inserted 5 mm from the limbus.
For the injections, the distance from the limbus was determined from the width of a 5 mm×30 mm Schirmer strip that was held between the limbus and the injection site. The conjunctiva at the injection site was grasped with fine forceps and an initial oblique conjunctival puncture was made with the needle bevel facing upwards. […] The needle was pushed through Tenon's capsule until the tip reached the sclera (as determined by feel). Care was taken to avoid puncturing the sclera itself. Also, since Tenon's capsule consists of several layers, care was also taken to administer a sub-Tenon (to create a juxta-scleral depot), and not an intra-Tenon's injection. Immediately following the injection the needle was rapidly withdrawn. The volume injected (1 ml) yielded a characteristic 180°-240° quasi-donut-shaped bolus of fluid around the limbus. Each injected eye then received drops of TOBREX® (tobramycin ophthalmic solution, 0.3%, Alcon Laboratories, Inc., Fort Worth, Tex., United States of America).
Animals were led to a funnel corral and their heads were suitably oriented within a neck yoke to enable an ophthalmologist to measure IOP with the Perkins tonometer. Before the IOP measurement, 2 drops of topical 0.5% proparacaine (Alcon Argentina) followed by 2 drops of 0.25% fluorescein were instilled. Two sets of measurements were taken on each eye alternating first one eye and then the other. All IOP measurements were taken between 2 PM and 4 PM every 2 or 3 days. The Perkins tonometry readings were converted to mmHg as described in detail previously (Kass et al., Arch Ophthalmol. 2002; 120:701-713).
Details of the design, construction, characterization and titration of the steroid-inducible MMP1 adenoviruses are provided in Example 2, above. At the time of viral administration, an Eppendorf™ tube containing the frozen virus suspension was thawed in the field as the sheep were immobilized within a narrow passage ending in a yoke. Two drops of topical proparacaine 0.5% (Alcon, Argentina) were instilled on the eyes as an anesthetic. Following this 30 μl of the virus suspension was injected into the eye using a Hamilton syringe with a 28G needle.

[4] = tested on: sheep eyes treated with triamcinolone or prednisolone; experiment: IOP in sheep given triamcinolone in one eye and prednisolone in the other, with Ad vector; format: in vivo, sheep (Ovis aries)
Source text: After determining the baseline measurement of IOP over the course of several days, two drops of 0.5% prednisolone acetate (Ultracortenol; Novartis Ophthalmics, Hettlingen, Switzerland) was topically instilled 3-times daily at 7 AM, 2 PM, and 7 PM for durations that lasted for 10-15 days depending on the experiment. In some experiments, prednisolone was instilled bilaterally; in others only one eye received the corticosteroid.
The injection procedure took less than 30 seconds.
Additional experiments (employing 2 separate protocols, each on one sheep) tested the effects of the injection of Ad virus carrying active MMP1 transgene on the IOP of contralateral eyes treated with unilateral triamcinolone and unilateral prednisolone. In the first protocol of this set, one eye of a sheep was administered triamcinolone via a sub-Tenon injection two weeks before the start of IOP measurements. The point at which IOP measurements were initiated was designated “Day 0” of the experiment. […] After recording these measurements, thrice daily instillations of prednisolone were begun on eye OS. Three-days later, when the IOP's of both eyes were nearly identical, Ad virus carrying active MMP1 transgene was bilaterally injected into the anterior chambers of the eyes. […] At the point of virus injection, IOP of eye OD had been elevated for 17 days; after virus injection, IOP was reduced up to Day 24. […]

SMILES	MMP1 expression, RQ values (18S normalized MMP1 cDNA) ([1]; 0.1 μM DEX, 3 days, HTM-109 cells)	MMP1 expression, RQ values (18S normalized MMP1 cDNA) ([1]; 0.1 μM DEX, 6 days, HTM-109 cells)	MMP1 expression, RQ values (18S normalized MMP1 cDNA) ([1]; DEX removed from medium at 3 days, measured at day 6)	downregulation of MMP1 at the transcriptional level ([1]; DEX-treated cells for 6 days) [fold]	MMP1 cDNA levels (RQ) ([1]; 80 μg/ml, 24 hours, HTM-109 cells)	downregulation of MMP1 at the transcriptional level ([1]; shorter time periods) [fold]	IOP increase ([2]; 0.5% topically three times daily, within 2 weeks)	incidence of intraocular pressure elevation in treated eyes ([2]; 0.5% topically three times daily) [%]	time for IOP to decline to baseline after discontinuation ([2]; in vivo)	MMP1 cDNA levels (RQ) ([1]; 0.1 mg/ml, 12 hours, HTM-109 cells)	IOP 15 days after sub-Tenon drug injection ([3]; FIG. 9)	IOP of the fellow eyes on Day 18 ([3]; depot nearly consumed, eyes had also received Ad vectors on Day 4, n=4 each)	IOP on Day 4 after bilateral sub-Tenon injection ([3]; eyes then injected with active MMP1 vector) [mmHg]	IOP on Day 4 after bilateral sub-Tenon injection ([3]; eyes then injected with mutated MMP1 vector) [mmHg]	IOP on Day 4 after unilateral sub-Tenon injection ([3]; n=3, before null Ad injection) [mmHg]	time the depot subsisted in the eye as judged by IOP ([3]; sub-Tenon depot) [days]	time the depots subsisted as determined by the IOP ([3]; sub-Tenon depot)	IOP of the triamcinolone-treated eye on Day 15 ([4]; FIGS. 11 and 12)	IOP of the eye given triamcinolone relative to fellow eye on Day 0 ([4]; sub-Tenon injection two weeks before)
C[C@@H]1C[C@H]2[C@@H]3CCC4=CC(=O)C=C[C@]4(C)[C@@]3(F)[C@@H](O)C[C@]2(C)[C@@]1(O)C(=O)CO [DEX, dexamethasone]	0.03±0.0002	0.002±0.0002	0.03±0.002	500	–	–	–	–	–	–	–	–	–	–	–	–	–	–	–
CC(=O)OCC(=O)[C@@]1(O)CC[C@H]2[C@@H]3CCC4=CC(=O)C=C[C@]4(C)[C@H]3[C@@H](O)C[C@@]21C [prednisolone, Prednisolone 21-acetate]	–	–	–	–	0.16±0.02	6.2	approximately 2.5 fold	100	1-3 weeks	–	–	–	–	–	–	–	–	–	–
CC1(C)O[C@@H]2C[C@H]3[C@@H]4CCC5=CC(=O)C=C[C@]5(C)[C@@]4(F)[C@@H](O)C[C@]3(C)[C@]2(C(=O)CO)O1 [triamcinolone acetonide]	–	–	–	–	–	2.4	–	–	–	0.42±0.1	less than 20 mmHg	10.5±0.4 mmHg and 12.4±0.2 mmHg	22.1±0.2	22.6±0.8	25.2±0.4	14 to 20	2-3 weeks	above 25 mmHg	about twice that of eye OS
